Source: patent US20120040906A1, “PROTEIN TARGETS IN DISEASE” (NATIONAL UNIVERSITY OF IRELAND, GALWAY, priority 2009, published 2012)

Key:
H9c2 cardiomyocytes [1] = test: microarray analysis of microRNA expression during ER stress; format: cell-based, Rat; conditions: Tg 1 μM or Tm 1 μg/ml, 24 hours, untreated control = 1.000
Experimental: (§1) Expression profiling of microRNAs during the conditions of Endoplasmic Reticulum (ER) stress in cardiomyocytes was performed. ER stress was induced by treatment with either thapsigargin, an inhibitor of the Sacroplasmic/Endoplasmic Reticulum Ca2+ATPase (SERCA) pump or tunicamycin (an inhibitor of N-linked glycosylation). RNA was isolated from three independent experiments where H9c2 cells were treated with thapsigargin (Tg) or tunicamycin (Tm) for 24 hours. RNAs from Tg and Tm treated cells were checked for induction of key ER resident chaperone Grp78/BiP by RT-PCR. Grp78/BiP is a central regulator of ER homeostasis due to its multiple functional roles in protein folding, ER calcium binding, and controlling of the activation of transmembrane ER stress sensors. […] Total RNA was isolated from H9c2 cells treated with 1 μM Tg, 1 μg/ml Tm for 24 hr and the expression levels of the indicated genes were analysed by RT-PCR.
Next equal amounts of RNAs from each experiment were pooled and used for microarray analysis to minimize experimental variations. The experimental outline for the microarray analysis is illustrated in FIG. 2. The chips were spotted with 350 mature microRNAs of Rat as per Sanger miRBase database (Release 11.0). Each microRNA was spotted on the array nine times and for each RNA sample two chips were used. There were 16 sets of control probes on each array. There were greater than 10 positive controls (spike-in controls & 5S). There were greater than 10 negative controls (mismatch control). A 20-mer control RNA is spiked into each sample followed by labeling and hybridization. The control RNA had been computationally and experimentally verified not to cross-hybridize with the probes of any known microRNA transcript. The background-subtracted signals were used for statistical tests and clustering analysis.
(§2) Control, Untreated; Tg, thapsigargin (1 μM) for 24 hours, Tm, tunicamycin (1 μg/ml) for 24 hours. mir-7a, mir-351 and mir-322 are shown in bold face.

H9c2 cells = test: RT-PCR for induction of Grp78/BiP; format: cell-based; conditions: 1 μM Tg, 1 μg/ml Tm for 24 hr, three independent experiments
Experimental: as §1

H9c2 cardiomyocytes [2] = test: real-time RT-PCR confirmation of microRNA expression during ER stress; format: cell-based, Rat; conditions: Tg 1 μM or Tm 1 μg/ml, 24 hours; for mir-7a expression, Real-time PCR (set I) / mir-18a expression, Real-time PCR (set I) / mir-20a expression, Real-time PCR (set I) / mir-24 expression, Real-time PCR (set I) / mir-25 expression, Real-time PCR (set I) / mir-93 expression, Real-time PCR (set I) / mir-98 expression, Real-time PCR (set I) / mir-103 expression, Real-time PCR (set I) / mir-106b expression, Real-time PCR (set I) / mir-107 expression, Real-time PCR (set I) / mir-133a expression, Real-time PCR (set I) / mir-133b expression, Real-time PCR (set I) / mir-206 expression, Real-time PCR (set I) / mir-322 expression, Real-time PCR (set I) / mir-351 expression, Real-time PCR (set I): untreated control = 1.000, set I; for mir-7a expression, Real-time PCR (set II) / mir-18a expression, Real-time PCR (set II) / mir-20a expression, Real-time PCR (set II) / mir-24 expression, Real-time PCR (set II) / mir-25 expression, Real-time PCR (set II) / mir-93 expression, Real-time PCR (set II) / mir-98 expression, Real-time PCR (set II) / mir-103 expression, Real-time PCR (set II) / mir-106b expression, Real-time PCR (set II) / mir-107 expression, Real-time PCR (set II) / mir-133a expression, Real-time PCR (set II) / mir-133b expression, Real-time PCR (set II) / mir-206 expression, Real-time PCR (set II) / mir-322 expression, Real-time PCR (set II) / mir-351 expression, Real-time PCR (set II): untreated control = 1.000, set II
From the text: Expression of muscle specific microRNAs; mir-206, mir-133a and mir-133b and several members of mir-17-92 oncogenic cluster were repressed during conditions of ER stress. Based on their differential expression profile during ER stress and their hitherto unexplored role in cardiovascular biology mir-7a, mir-351 and mir-322 were identified as primary microRNA targets in conditions of ER stress. In addition, the invention has been extended to the human ortholog, miR-125, of rat miR-351. Similarly, the invention extends to the human ortholog, miR-424, of rat miR-322. […], and hsa-miR-424 & rno-miR-322 are microRNAs having similar seed sequences in humans and rats respectively.
as §2

Compound: C/C=C(/C)C(=O)O[C@H]1C(C)=C2[C@H]([C@@H]1OC(=O)CCCCCCC)[C@@](C)(OC(C)=O)C[C@H](OC(=O)CCC)[C@@]1(O)[C@H]2OC(=O)[C@@]1(C)O [Tg, thapsigargin]
- mir-7a expression, Microarray Analysis (H9c2 cardiomyocytes [1]): 1.341
- mir-18a expression, Microarray Analysis (H9c2 cardiomyocytes [1]): 0.426
- mir-20a expression, Microarray Analysis (H9c2 cardiomyocytes [1]): 0.770
- mir-24 expression, Microarray Analysis (H9c2 cardiomyocytes [1]): 0.664
- mir-25 expression, Microarray Analysis (H9c2 cardiomyocytes [1]): 0.633
- mir-93 expression, Microarray Analysis (H9c2 cardiomyocytes [1]): 0.583
- mir-98 expression, Microarray Analysis (H9c2 cardiomyocytes [1]): 3.822
- mir-103 expression, Microarray Analysis (H9c2 cardiomyocytes [1]): 0.654
- mir-106b expression, Microarray Analysis (H9c2 cardiomyocytes [1]): 0.638
- mir-107 expression, Microarray Analysis (H9c2 cardiomyocytes [1]): 0.682
- mir-133a expression, Microarray Analysis (H9c2 cardiomyocytes [1]): 0.595
- mir-133b expression, Microarray Analysis (H9c2 cardiomyocytes [1]): 0.565
- mir-206 expression, Microarray Analysis (H9c2 cardiomyocytes [1]): 0.683
- mir-322 expression, Microarray Analysis (H9c2 cardiomyocytes [1]): 0.094
- mir-351 expression, Microarray Analysis (H9c2 cardiomyocytes [1]): 0.141
- induction of ER resident chaperone Grp78/BiP by RT-PCR (H9c2 cells): induction of Grp78/BiP in all three experiments
- mir-7a expression, Real-time PCR (set I) (H9c2 cardiomyocytes [2]): 1.540
- mir-18a expression, Real-time PCR (set I) (H9c2 cardiomyocytes [2]): 0.720
- mir-20a expression, Real-time PCR (set I) (H9c2 cardiomyocytes [2]): 0.930
- mir-24 expression, Real-time PCR (set I) (H9c2 cardiomyocytes [2]): 0.810
- mir-25 expression, Real-time PCR (set I) (H9c2 cardiomyocytes [2]): 0.790
- mir-93 expression, Real-time PCR (set I) (H9c2 cardiomyocytes [2]): 0.660
- mir-98 expression, Real-time PCR (set I) (H9c2 cardiomyocytes [2]): 1.470
- mir-103 expression, Real-time PCR (set I) (H9c2 cardiomyocytes [2]): 0.860
- mir-106b expression, Real-time PCR (set I) (H9c2 cardiomyocytes [2]): 0.820
- mir-107 expression, Real-time PCR (set I) (H9c2 cardiomyocytes [2]): 0.580
- mir-133a expression, Real-time PCR (set I) (H9c2 cardiomyocytes [2]): 0.720
- mir-133b expression, Real-time PCR (set I) (H9c2 cardiomyocytes [2]): 0.470
- mir-206 expression, Real-time PCR (set I) (H9c2 cardiomyocytes [2]): 0.540
- mir-322 expression, Real-time PCR (set I) (H9c2 cardiomyocytes [2]): 0.830
- mir-351 expression, Real-time PCR (set I) (H9c2 cardiomyocytes [2]): 0.210
- mir-7a expression, Real-time PCR (set II) (H9c2 cardiomyocytes [2]): 3.800
- mir-18a expression, Real-time PCR (set II) (H9c2 cardiomyocytes [2]): 0.700
- mir-20a expression, Real-time PCR (set II) (H9c2 cardiomyocytes [2]): 0.620
- mir-24 expression, Real-time PCR (set II) (H9c2 cardiomyocytes [2]): 0.870
- mir-25 expression, Real-time PCR (set II) (H9c2 cardiomyocytes [2]): 0.799
- mir-93 expression, Real-time PCR (set II) (H9c2 cardiomyocytes [2]): 0.530
- mir-98 expression, Real-time PCR (set II) (H9c2 cardiomyocytes [2]): 0.850
- mir-103 expression, Real-time PCR (set II) (H9c2 cardiomyocytes [2]): 0.590
- mir-106b expression, Real-time PCR (set II) (H9c2 cardiomyocytes [2]): 0.800
- mir-107 expression, Real-time PCR (set II) (H9c2 cardiomyocytes [2]): 0.800
- mir-133a expression, Real-time PCR (set II) (H9c2 cardiomyocytes [2]): 1.140
- mir-133b expression, Real-time PCR (set II) (H9c2 cardiomyocytes [2]): 0.680
- mir-206 expression, Real-time PCR (set II) (H9c2 cardiomyocytes [2]): 0.820
- mir-322 expression, Real-time PCR (set II) (H9c2 cardiomyocytes [2]): 0.690
- mir-351 expression, Real-time PCR (set II) (H9c2 cardiomyocytes [2]): 0.210

Compound: tunicamycin [Tm]
- mir-7a expression, Microarray Analysis (H9c2 cardiomyocytes [1]): 2.458
- mir-18a expression, Microarray Analysis (H9c2 cardiomyocytes [1]): 0.550
- mir-20a expression, Microarray Analysis (H9c2 cardiomyocytes [1]): 0.791
- mir-24 expression, Microarray Analysis (H9c2 cardiomyocytes [1]): 0.672
- mir-25 expression, Microarray Analysis (H9c2 cardiomyocytes [1]): 0.771
- mir-93 expression, Microarray Analysis (H9c2 cardiomyocytes [1]): 0.524
- mir-98 expression, Microarray Analysis (H9c2 cardiomyocytes [1]): 4.921
- mir-103 expression, Microarray Analysis (H9c2 cardiomyocytes [1]): 0.571
- mir-106b expression, Microarray Analysis (H9c2 cardiomyocytes [1]): 0.672
- mir-107 expression, Microarray Analysis (H9c2 cardiomyocytes [1]): 0.601
- mir-133a expression, Microarray Analysis (H9c2 cardiomyocytes [1]): 0.690
- mir-133b expression, Microarray Analysis (H9c2 cardiomyocytes [1]): 0.641
- mir-206 expression, Microarray Analysis (H9c2 cardiomyocytes [1]): 0.607
- mir-322 expression, Microarray Analysis (H9c2 cardiomyocytes [1]): 0.113
- mir-351 expression, Microarray Analysis (H9c2 cardiomyocytes [1]): 0.179
- induction of ER resident chaperone Grp78/BiP by RT-PCR (H9c2 cells): induction of Grp78/BiP in all three experiments
- mir-7a expression, Real-time PCR (set I) (H9c2 cardiomyocytes [2]): 1.140
- mir-18a expression, Real-time PCR (set I) (H9c2 cardiomyocytes [2]): 1.090
- mir-20a expression, Real-time PCR (set I) (H9c2 cardiomyocytes [2]): 1.340
- mir-24 expression, Real-time PCR (set I) (H9c2 cardiomyocytes [2]): 0.930
- mir-25 expression, Real-time PCR (set I) (H9c2 cardiomyocytes [2]): 0.906
- mir-93 expression, Real-time PCR (set I) (H9c2 cardiomyocytes [2]): 0.800
- mir-98 expression, Real-time PCR (set I) (H9c2 cardiomyocytes [2]): 1.480
- mir-103 expression, Real-time PCR (set I) (H9c2 cardiomyocytes [2]): 0.960
- mir-106b expression, Real-time PCR (set I) (H9c2 cardiomyocytes [2]): 1.060
- mir-107 expression, Real-time PCR (set I) (H9c2 cardiomyocytes [2]): 0.590
- mir-133a expression, Real-time PCR (set I) (H9c2 cardiomyocytes [2]): 0.750
- mir-133b expression, Real-time PCR (set I) (H9c2 cardiomyocytes [2]): 0.480
- mir-206 expression, Real-time PCR (set I) (H9c2 cardiomyocytes [2]): 0.570
- mir-322 expression, Real-time PCR (set I) (H9c2 cardiomyocytes [2]): 0.840
- mir-351 expression, Real-time PCR (set I) (H9c2 cardiomyocytes [2]): 0.290
- mir-7a expression, Real-time PCR (set II) (H9c2 cardiomyocytes [2]): 1.650
- mir-18a expression, Real-time PCR (set II) (H9c2 cardiomyocytes [2]): 0.640
- mir-20a expression, Real-time PCR (set II) (H9c2 cardiomyocytes [2]): 0.650
- mir-24 expression, Real-time PCR (set II) (H9c2 cardiomyocytes [2]): 0.760
- mir-25 expression, Real-time PCR (set II) (H9c2 cardiomyocytes [2]): 0.760
- mir-93 expression, Real-time PCR (set II) (H9c2 cardiomyocytes [2]): 0.550
- mir-98 expression, Real-time PCR (set II) (H9c2 cardiomyocytes [2]): 0.750
- mir-103 expression, Real-time PCR (set II) (H9c2 cardiomyocytes [2]): 0.500
- mir-106b expression, Real-time PCR (set II) (H9c2 cardiomyocytes [2]): 0.737
- mir-107 expression, Real-time PCR (set II) (H9c2 cardiomyocytes [2]): 0.630
- mir-133a expression, Real-time PCR (set II) (H9c2 cardiomyocytes [2]): 0.730
- mir-133b expression, Real-time PCR (set II) (H9c2 cardiomyocytes [2]): 0.510
- mir-206 expression, Real-time PCR (set II) (H9c2 cardiomyocytes [2]): 0.604
- mir-322 expression, Real-time PCR (set II) (H9c2 cardiomyocytes [2]): 0.610
- mir-351 expression, Real-time PCR (set II) (H9c2 cardiomyocytes [2]): 0.230
